Measurements published in patent US10852272B2, “Devices and methods using pore size modulation for detecting analytes in a fluid sample” (The Regents of the University of California, priority 2014, dated 2020).

What was measured:
[1] = Dissolution (decrosslinking) kinetics of labile crosslinkers under the dissolution treatment (applied stimulus); type: physicochemical; conditions: under the dissolution treatment listed per crosslinker (periodic acid, reducing agent, base or acid)
Source text: Certain properties of labile crosslinkers are described in the table below.

[2] = Half-life of DK as a function of pH; type: physicochemical; conditions: buffer
Protocol: The half-life of DK was 0.03 days at pH 5 and 6 days at pH 7.4 (at 35° C.). To qualitatively confirm decrosslinking functionality, four solutions of tris glycine were titrated to pH values of 8.3, 7.1, 2.6 and 0.07, with the addition of hydrochloric acid. A piece of DK crosslinked PAG was placed into each of the separate solutions to assess dissolution at room temperature. Gels were periodically removed and photographs were taken to qualitatively assess how much gel remained. […] The gels soaking in 8.3 pH and 7.1 pH were not visually affected even after overnight incubation. […] Experiments were performed to study composite crosslinked PAG.

Dissolution Kinetics [1]	half-life ([2]; pH 5, 35° C.) [h]	half-life ([2]; pH 7.4, 35° C.) [h]	Compound
Minutes	–	–	C=CC(=O)NCCSSCCNC(=O)C=C [BAC, N,N′-bis(acryloyl)cystamine]
Minutes	0.72	144	C=CC(=O)NCCOC(C)(C)OCCNC(=O)C=C [DK, N-[2-[2-[2-(prop-2-enoylamino)ethoxy]propan-2-yloxy]ethyl]prop-2-enamide]
Minutes	–	–	C=CC(=O)OCCOC(=O)C=C [EDA, ethylene glycol diacrylate]
Hours	–	–	C=CCNC(=O)C(O)C(O)C(=O)NCC=C (centres unmarked) [DATD, N—N′-diallyltartardiamide]
Hours	–	–	C=CC(=O)NC(O)C(O)NC(=O)C=C (centres unmarked) [DHEBA, N,N′-(1,2-dihydroxyethylene)bisacrylamide]
Minutes	–	–	C=CC(=O)NCCOCCOC(C)(C)OCCOCCNC(=O)C=C [DOK, N,N′-(7,7-dimethyl-3,6,8,11-tetraoxatridecane-1,13-diyl)diacrylamide]
